# Read-outs that look alike come from different tables or passages of the source.
# Key:
# [1] = biological target: T1, Porcine pancreatic lipase, type II (Sus scrofa, UniProt P00591); assay: Pancreatic lipase inhibition assay (spectrophotometric, p-NPP substrate); assay type: biochemical
# T1 construct: purchased Merck Millipore / Sigma-Aldrich L-3126
# T1 sequence (P00591 1-450): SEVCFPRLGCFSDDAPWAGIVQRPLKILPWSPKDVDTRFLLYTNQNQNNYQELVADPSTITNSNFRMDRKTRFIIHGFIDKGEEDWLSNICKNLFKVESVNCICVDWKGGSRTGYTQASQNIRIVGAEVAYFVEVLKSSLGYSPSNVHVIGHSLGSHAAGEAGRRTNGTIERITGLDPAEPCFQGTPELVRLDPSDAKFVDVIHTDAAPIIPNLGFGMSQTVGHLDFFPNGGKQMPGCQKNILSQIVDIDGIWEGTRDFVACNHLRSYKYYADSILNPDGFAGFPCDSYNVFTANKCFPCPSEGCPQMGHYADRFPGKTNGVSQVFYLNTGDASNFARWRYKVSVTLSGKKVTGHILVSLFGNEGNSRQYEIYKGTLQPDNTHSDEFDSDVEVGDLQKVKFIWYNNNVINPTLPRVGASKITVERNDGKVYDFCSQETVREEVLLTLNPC
# Protocol: Following the experimental conditions described in the previous study [28], the assay was performed as follows: each sample solution, composed of 50 mM Tris-HCl buffer at pH 8.0, tested compound, and 10 mg/ml pancreatic lipase enzyme, was sequentially added. The resulting mixture was thoroughly mixed and incubated for 10 minutes at 37°C. Subsequently, the p-NPP substrate solution was added and mixed well. The mixture was then further incubated for 7 minutes at 37°C. The absorbance of the solution was measured at 405 nm. For the control solution, the same procedure was followed, replacing the tested compound with 10% DMSO. The blank solution was prepared with no enzyme added.
# The percentage of pancreatic lipase inhibition (I%) was calculated using the following equation:(1) I%=∆A0−∆A/A0×100.
# Here, ∆A0 represents the absorbance difference between the control and the blank, ∆A represents the absorbance difference between the sample and the blank, and A0 represents the absorbance of the control.
# A linear regression equation was constructed to establish the correlation between the logarithm of the concentration (µM) of the tested substances and the percentage of pancreatic lipase inhibition. From this equation, the IC50 value, which indicates the concentration of the compound required for 50% inhibition, was determined.
# [2] = biological target: T1, Porcine pancreatic lipase, type II; assay: Enzymatic inhibition kinetic analysis (Michealis–Menten and Lineweaver–Burk plots); assay type: biochemical; settings: for Mode of enzyme inhibition: Michealis–Menten and Lineweaver–Burk plots; for Vmax in the presence of inhibitor: p-NPP 12.5-200 μM, from Michealis–Menten plots
# Protocol: Ten semisynthetic flavonoid derivatives, 2 flavanones and 8 flavones (Figure 1), reported in the previous works were used in this study.
# The substrate p-NPP was examined at five distinct concentrations ranging from 12.5 μM to 200 μM. The flavonoid derivative was assessed for its lipase inhibition capacity over time at concentrations of 15 μM and 30 μM. Simultaneously, a negative control sample without the inhibitor was utilized for comparison. […] Inhibition constants (Ki) and maximum velocity (Vmax) were derived from the Michealis–Menten plots, and the mode of enzyme inhibition was elucidated through the Lineweaver–Burk plots. All parameters and graphical representations were calculated and generated using GraphPad Prism 8.4.3 software.
# [3] = set-up: method as in PMID 11261530; settings: dietary contexts, clinical use; cited from earlier work
# [4] = p-NPP substrate, 50 mM Tris-HCl pH 8.0, 37°C, absorbance 405 nm, read-out: IC50 for pancreatic lipase
"IC50 [1, 4] [µM]",SMILES,IC50 [1] [µM],also measured
17.7 ± 1.43,"COc1cc(O)c2c(c1)OC(c1ccc(O)cc1)CC2=O (stereo not shown) [F01, 5-hydroxy-2-(4-hydroxyphenyl)-7-methoxychroman-4-one]",,Mode of enzyme inhibition [2]: competitive; Vmax in the presence of inhibitor [2]: 0.03272 ΔA·min^−1; Ki ([2]; read-out: Inhibition constant (Ki)): 7.16 µM
76.2 ± 3.22,COc1ccc(C2CC(=O)c3c(O)cc(OC)cc3O2)cc1 (stereo not shown) [F02],,
> 500,COc1cc2oc(-c3ccccc3)cc(=O)c2c(O)c1OC [F03],,
,CCOc1cc2oc(-c3ccccc3)cc(=O)c2c(O)c1OCC [F04],> 500,
,C=CCOc1cc2oc(-c3ccccc3)cc(=O)c2c(O)c1OCC=C [F05],341 ± 24.1,
,CC(=O)Oc1cc2oc(-c3ccccc3)cc(=O)c2c(OC(C)=O)c1OC(C)=O [F06],> 500,
,CCC(=O)Oc1cc2oc(-c3ccccc3)cc(=O)c2c(OC(=O)CC)c1OC(=O)CC [F07],> 500,
,COc1cc(OC)c2c(=O)cc(-c3ccc(OC)c(OC)c3)oc2c1 [F08],270 ± 14.6,
465 ± 11.8,COc1cc(O)c2c(=O)cc(-c3ccc(OC)c(OC)c3)oc2c1 [F09],,
,CCOc1cc(O)c2c(=O)cc(-c3ccc(OC)c(OCC)c3)oc2c1 [F10],> 500,
,"CCCCCCCCCCC[C@@H](C[C@@H]1OC(=O)[C@H]1CCCCCC)OC(=O)[C@H](CC(C)C)NC=O [Orlistat, reference compound]",,Mode of enzyme inhibition [2]: competitive; Vmax in the presence of inhibitor [2]: 0.03295 ΔA·min^−1; Reduction of fat absorption [3]: approximately 30%

# Source: publication PMC10830309, “Inhibition of Pancreatic Lipase by Flavonoid Derivatives: In Vitro and In Silico Investigations” (Advances in Pharmacological and Pharmaceutical Sciences, 2024)
